# From patent EP0719251B1, “BICYCLO (2.2.2) OCTANE DERIVATIVES CHOLECYSTOKININ AND/OR GASTRIN ANTAGONISTS” (JAMES BLACK FOUNDATION LIMITED, priority 1993, dated 1995)
# Experiments:
# [1] = target: T1, gastrin (Rattus norvegicus, UniProt P30553); experiment: gastrin antagonist activity in an immature rat stomach assay; conditions: isolated immature rat stomach, cumulative pentagastrin dose-response curves, acid secretion; for Kb: read-out: Gastrin pKB (converted)
# T1 construct: The stomach was excised and flushed with ca. 1 ml of unbuffered physiological saline solution; from tissue; host or cells: isolated whole stomach of immature rats (33-50 g, ca. 21 days old)
# T1 sequence (P30553 1-452): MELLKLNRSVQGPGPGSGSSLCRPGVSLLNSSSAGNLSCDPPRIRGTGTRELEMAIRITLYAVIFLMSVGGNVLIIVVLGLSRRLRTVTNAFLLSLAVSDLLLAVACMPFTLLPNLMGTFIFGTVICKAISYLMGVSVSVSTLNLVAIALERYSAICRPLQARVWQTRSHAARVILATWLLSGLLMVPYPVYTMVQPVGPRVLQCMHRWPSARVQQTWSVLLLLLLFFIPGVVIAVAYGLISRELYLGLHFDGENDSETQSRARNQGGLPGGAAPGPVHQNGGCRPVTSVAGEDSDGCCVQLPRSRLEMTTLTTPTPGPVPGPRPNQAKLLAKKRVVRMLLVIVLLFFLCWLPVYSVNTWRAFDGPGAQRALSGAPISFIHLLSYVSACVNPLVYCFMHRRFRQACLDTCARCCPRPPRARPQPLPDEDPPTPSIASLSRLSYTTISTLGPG
# Method in brief: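 Isolated stomachs from immature rats (33-50 g, ca. 21 days) perfused at 1 ml min^-1 with O2-gassed unbuffered saline, perfusate pH monitored by electrode. After 120 min stabilisation, compounds added to serosal bath; cumulative pentagastrin dose-response curves begun 60 min later.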
# [2] = target: T2, CCKB receptor (Mus musculus, UniProt P56481); experiment: radioligand binding assay at the CCKB receptor in mouse cortical membranes; conditions: [125I]-CCK8S 200pM, 150 min at 21 ± 3°C, read-out: CCKB pKi (converted)
# T2 construct: The whole brains from male mice (CD1 22-25g; Charles River) were removed; from tissue; host or cells: cerebral cortex membranes of male CD1 mice
# T2 sequence (P56481 1-453): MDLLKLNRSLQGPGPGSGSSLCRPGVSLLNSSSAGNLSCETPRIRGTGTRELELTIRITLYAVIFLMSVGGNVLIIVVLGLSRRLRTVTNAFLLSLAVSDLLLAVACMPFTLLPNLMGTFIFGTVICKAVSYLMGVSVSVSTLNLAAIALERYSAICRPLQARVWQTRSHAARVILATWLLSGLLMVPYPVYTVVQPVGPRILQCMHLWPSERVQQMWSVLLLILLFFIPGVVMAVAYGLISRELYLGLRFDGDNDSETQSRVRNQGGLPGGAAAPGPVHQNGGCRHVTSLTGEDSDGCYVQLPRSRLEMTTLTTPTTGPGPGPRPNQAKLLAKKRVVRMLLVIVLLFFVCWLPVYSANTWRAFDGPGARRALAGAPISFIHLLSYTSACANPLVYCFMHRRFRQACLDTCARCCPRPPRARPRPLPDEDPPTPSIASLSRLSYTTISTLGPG
# Method in brief: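 Cortical membranes from male CD1 mice prepared in HEPES buffer (pH 7.2, with NaCl, KCl, MgCl2, EDTA, bacitracin) at 2 mg/ml wet weight. Binding stopped by rapid filtration over GF/B filters with ice-cold Tris-HCl washes. Bound radioactivity counted in a gamma-counter.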
# [3] = target: T3, CCKA (Cavia porcellus, UniProt Q63931); experiment: CCKA binding assay in guinea-pig pancreas membranes; conditions: [125I]-CCK8(S) 200pM; for Ki: containing 0.375 µM PD134,308, read-out: CCKA pKi (converted)
# T3 construct: The pancreatata were removed from male guinea-pigs (200-300g; Dunkin Hartley); from tissue; host or cells: pancreas membranes of male Dunkin Hartley guinea-pigs
# T3 sequence (Q63931 1-430): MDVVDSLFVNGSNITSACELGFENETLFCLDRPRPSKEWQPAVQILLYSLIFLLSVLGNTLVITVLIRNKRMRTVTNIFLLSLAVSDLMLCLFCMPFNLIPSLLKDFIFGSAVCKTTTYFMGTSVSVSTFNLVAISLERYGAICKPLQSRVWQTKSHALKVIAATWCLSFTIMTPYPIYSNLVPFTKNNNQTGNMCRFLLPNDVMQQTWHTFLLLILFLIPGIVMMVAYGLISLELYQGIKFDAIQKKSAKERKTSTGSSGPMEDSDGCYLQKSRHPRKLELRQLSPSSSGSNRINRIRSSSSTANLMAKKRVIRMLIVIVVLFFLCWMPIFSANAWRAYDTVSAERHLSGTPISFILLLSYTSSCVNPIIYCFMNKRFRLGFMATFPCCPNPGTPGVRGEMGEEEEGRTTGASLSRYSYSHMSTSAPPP
# Method in brief: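 Competition binding of [125I]-CCK8(S) (200 pM in the added solution) to male guinea-pig pancreas membranes (1 mg/ml wet weight) containing 0.375 µM PD134,308, in HEPES buffer pH 7.2. Incubated 150 min at 21 ± 3°, then filtered. Bound radioactivity gamma-counted; non-specific binding defined with 100nM L-364,718.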
SMILES,Kb [1],Ki [2],Ki [3],Gastrin pKB ([1]; 60 min),"CCKA pKi ([3]; containing 0.375 µM PD134,308)"
"CC(C)(NC(=O)C1C2c3ccccc3C(c3ccccc32)C1C(=O)N[C@@H](Cc1ccccc1)C(=O)Nc1cc(C(=O)O)cc(C(=O)O)c1)C12CC3CC(CC(C3)C1)C2 (stereo partly drawn) [Example 49, cis-7-(1S-(3,5-dicarboxyphenylaminocarbonyl)-2-phenylethylaminocarbonyl)-8-(1-(1-adamantane)-1-methyl-ethylaminocarbonyl) -2,3,5,6-dibenzobicyclo[2.2.2]octane]",10 nM,63.1 nM,2510 nM,,
"O=C(O)c1cccc(NC(=O)[C@H](Cc2ccccc2)NC(=O)C2C3c4ccccc4C(c4ccccc43)C2C(=O)NCC23CC4CC(CC(C4)C2)C3)c1 (single isomer, unassigned) [Example 41, cis-7-(1S-(3-carboxyphenylaminocarbonyl)-2-phenylethylaminocarbonyl)-8-(1-adamantanemethylaminocarbonyl)-2,3,5,6-dibenzobicyclo[2.2.2]octane]",,158 nM,,5.7,6.0
"O=C(O)c1cc(NC(=O)[C@H](Cc2ccccc2)NC(=O)C2C3c4ccccc4C(c4ccccc43)C2C(=O)NCc2ccc3ccccc3c2)cc(C(=O)O)c1 (single isomer, unassigned) [Example 63, cis-7-(1S-(3,5-dicarboxyphenylaminocarbonyl) -2-phenylethylaminocarbonyl)-8-(2-naphthalenemethylaminocarbonyl) -2,3,5,6-dibenzobicyclo[2.2.2]octane]",39.8 nM,2.51 nM,1580 nM,,
"O=C(O)c1ccc(NC(=O)[C@H](Cc2ccccc2)NC(=O)C2C3c4ccccc4C(c4ccccc43)C2C(=O)NCC23CC4CC(CC(C4)C2)C3)cc1C(=O)O (stereo partly drawn) [Example 43, cis-7-(1S-(3,4-dicarboxyphenylaminocarbonyl)-2-phenylethylaminocarbonyl)-8-(1-adamantanemethylaminocarbonyl)-2,3,5,6-dibenzobicyclo [2.2.2]octane]",794 nM,100 nM,1260 nM,,
"COC(=O)c1cc(NC(=O)[C@H](Cc2ccccc2)NC(=O)C2C3c4ccccc4C(c4ccccc43)C2C(=O)NCC23CC4CC(CC(C4)C2)C3)cc(C(=O)O)c1 (stereo partly drawn) [Example 42, cis-7-(1S-(3-carboxy-5-methoxycarbonyl-phenylaminocarbonyl)-2-phenylethylaminocarbcnyl)-8-(1-adamantanemethylaminocarbonyl) -2,3,5,6-dibenzobicyclo[2.2.2]octane]",1580 nM,31.6 nM,2000 nM,,
"CN(C(=O)C1C2c3ccccc3C(c3ccccc32)C1C(=O)NCC12CC3CC(CC(C3)C1)C2)[C@@H](Cc1ccccc1)C(=O)Nc1cc(C(=O)O)cc(C(=O)O)c1 (stereo partly drawn) [Example 38, cis-7-(1S-(3,5-dicarboxyphenylaminocarbonyl) -2-phenylethyl-N (methyl)-aminocarbonyl) -8-(1-adamantanemethylaminocarbonyl) -2,3,5,6-dibenzobicyclo[2.2.2]octane]",79.4 nM,50.1 nM,316 nM,,
"O=C(O)c1cc(NC(=O)[C@H](Cc2ccccc2)NC(=O)C2C3c4ccccc4C(c4ccccc43)C2C(=O)NCc2ccc(Cl)c(Cl)c2)cc(C(=O)O)c1 (single isomer, unassigned) [Example 35, cis-7-(1S-(3,5-dicarboxyphenylaminocarbonyl)-2-phenylethylaminocarbonyl) -8-(3,4-dichlorophenyl-methylaminocarbonyl) -2,3,5,6-dibenzobicyclo[2.2.2]octane]",1000 nM,158 nM,1260 nM,,

# Second part, the molecule after the results:
Kb [1],Ki [2],Ki [3],Gastrin pKB ([1]; 60 min),"CCKA pKi ([3]; containing 0.375 µM PD134,308)",SMILES
63.1 nM,50.1 nM,1260 nM,,,"O=C(O)c1cc(NC(=O)[C@@H](Cc2cccs2)NC(=O)C2C3c4ccccc4C(c4ccccc43)C2C(=O)NCC23CC4CC(CC(C4)C2)C3)cc(C(=O)O)c1 (single isomer, unassigned) [Example 21, cis-7-(1R-(3,5-dicarboxyphenylaminocarbonyl)-2-(2-thiophenyl)ethylaminocarbonyl)-8-(1-adamantanemethylaminocarbonyl)-2,3,5,6-dibenzobicyclo[2.2.2]octane]"
63.1 nM,100 nM,1580 nM,,,"COc1ccc(C[C@H](NC(=O)C2C3c4ccccc4C(c4ccccc43)C2C(=O)NCC23CC4CC(CC(C4)C2)C3)C(=O)Nc2cc(C(=O)O)cc(C(=O)O)c2)cc1 (single isomer, unassigned) [Example 12, cis-7-(1S-(3,5-dicarboxyphenylaminocarbonyl)-2-(4-methoxyphenyl) -ethylaminocarbonyl)-8-(1-adamantanemethylaminocarbonyl) -2,3,5,6-dibenzobicyclo[2.2.2]octane]"
3.98 nM,3.16 nM,316 nM,,,"O=C(O)c1cc(NC(=O)[C@H](Cc2cccc(F)c2)NC(=O)C2C3c4ccccc4C(c4ccccc43)C2C(=O)NCC23CC4CC(CC(C4)C2)C3)cc(C(=O)O)c1 (single isomer, unassigned) [Example 18, cis-7-(1S-(3,5-dicarboxyphenylaminocarbonyl)-2-(3-fluorophenyl) -ethylaminocarbonyl)-8-(1-adamantanemethylaminocarbonyl)-2,3,5,6-dibenzobicyclo[2.2.2]octane]"
7.94 nM,12.6 nM,1000 nM,,,"O=C(O)c1cc(NC(=O)[C@H](Cc2ccc(F)cc2)NC(=O)C2C3c4ccccc4C(c4ccccc43)C2C(=O)NCC23CC4CC(CC(C4)C2)C3)cc(C(=O)O)c1 (single isomer, unassigned) [Example 8, cis-7-(1S-(3,5-dicarboxyphenylaminocarbonyl) -2-(4-fluorophenyl)-ethylaminocarbonyl)-8-(1-adamantane-methylaminocarbonyl)-2,3,5,6-dibenzobicyclo[2.2.2]octane]"
15.8 nM,15.8 nM,1260 nM,,,"O=C(O)c1cc(NC(=O)[C@@H](Cc2ccccc2)NC(=O)C2C3c4ccccc4C(c4ccccc43)C2C(=O)NCC23CC4CC(CC(C4)C2)C3)cc(C(=O)O)c1 (single isomer, unassigned) [Example 4, cis-7-(1R-(3,5-dicarboxyphenylaminocarbonyl)-2-phenylethylaminocarbonyl)-8-(1-adamantananethylaminocarbonyl) -2,3,5,6-dibenzobicyclo[2.2.2]octane]"
50.1 nM,15.8 nM,501 nM,,,"O=C(O)c1cc(NC(=O)[C@H](Cc2ccccc2)NC(=O)C2C3c4ccccc4C(c4ccccc43)C2C(=O)NCC23CC4CC(CC(C4)C2)C3)cc(C(=O)O)c1 (single isomer, unassigned) [Example 2, cis-7-(1S-(3,5-dicarboxyphenylaminocarbonyl) -2-phenylethylaminocarbonyl)-8-(1-adamantanemethylaminocarbonyl)-2,3,5,6-dibenzobicyclo[2.2.2] octane]"
